From patent US10294202B2, “Pyrrolidinones as herbicides” (FMC Corporation, priority 2013, dated 2019)
Read-outs that look alike come from different tables or passages of the source.

System: wheat
Assay: Test A pre-/postemergence herbicide test
Format: in vivo, Triticum aestivum
Settings: for Wheat plant response rating: Preemergence, visual rating on 0 to 100 scale (0 no effect, 100 complete control); for plant injury at 125 g/ha / plant injury at 500 g/ha: Triticum aestivum, 240 h, read-out: Plant response rating, Wheat; for plant injury at 125 g/ha: 0 no effect, 100 complete control
How it was run: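 Both application timings used compounds in a non-phytotoxic solvent plus surfactant. Pre-emergence: soil sprayed directly after seeding into loam/sand. Post-emergence: foliage of 2–10 cm seedlings (1–2 leaves) sprayed. Injury rated ~10 days later, 0–100.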

[1] = post-emergence, Postemergence, 125 g ai/ha, 0 to 100 scale
[2] = post-emergence, Postemergence, 500 g ai/ha, 0 to 100 scale (0 no effect, 100 complete control)
[3] = pre-emergence, preemergence, 500 g ai/ha, 0 to 100 scale

Compound	Plant response rating, Wheat (Postemergence, 500 g ai/ha, 0 to 100 scale (0 no effect, 100 complete control))	Wheat plant response rating (125 g ai/ha)	Plant response rating, Wheat (preemergence, 500 g ai/ha, 0 to 100 scale)	Plant response rating, Wheat (Postemergence, 125 g ai/ha, 0 to 100 scale, 0 is no effect, 100 is complete control)	Wheat plant response rating (0 to 100 scale, 0 is no effect, 100 is complete control) (Postemergence, 500 g ai/ha)	plant injury at 125 g/ha [1]	plant injury at 500 g/ha [2]	plant injury at 500 g/ha [3]
O=C1NCC(c2ccc(F)c(F)c2)C1C(=O)Nc1ccccc1C(F)(F)F (racemic) [Compound 6]	0	0	0	–	–	–	–	–
O=C1NCC(c2cccc(C(F)F)c2)C1C(=O)Nc1ccccc1F (racemic) [Compound 210]	–	–	–	0	50	–	–	–
O=C1NCC(Br)(c2ccccc2)C1C(=O)Nc1ccccc1F (stereo not shown) [Compound 92, 4-bromo-N-(2-fluorophenyl)-2-oxo-4-phenyl-3-pyrrolidinecarboxamide]	–	0	–	–	–	0%	0%	0%
O=C1NCC(c2ccccc2)C1(Br)C(=O)Nc1ccccc1F (stereo not shown) [Compound 93, 3-bromo-N-(2-fluorophenyl)-2-oxo-4-phenyl-3-pyrrolidinecarboxamide]	–	0	–	–	–	0%	0%	0%
